Experimental data: PMC9854539, “QSAR Studies, Molecular Docking, Molecular Dynamics, Synthesis, and Biological Evaluation of Novel Quinolinone-Based Thiosemicarbazones against Mycobacterium tuberculosis” (Antibiotics, 2022)
Converted amounts (≈) assume the structure as drawn. “And” between values parts separate entries of the source, which are not always exact repeats. Equal entries are not always repeated.

Legend:
[1] = system: M. tuberculosis ATCC 35838; assay: Spot culture growth inhibition assay (SPOTi), MIC; assay type: cell-based, Mycobacterium tuberculosis; settings: IC50 Vero / MIC M. tuberculosis ATCC 35838 RR
[2] = system: M. tuberculosis Haarlem; assay: Spot culture growth inhibition assay (SPOTi), MIC; assay type: cell-based, Mycobacterium tuberculosis; settings: IC50 Vero / MIC M. tuberculosis Haarlem
[3] = system: M. tuberculosis H37Rv; assay: Spot culture growth inhibition assay (SPOTi), MIC; assay type: cell-based, Mycobacterium tuberculosis; settings: for Selectivity Index (SI) (SI = IC50/MIC) b: IC50 Vero / MIC M. tuberculosis H37Rv; for MIC: Mycobacterium tuberculosis, H37RV, SPOTi, 2–3 weeks at 37 °C
[4] = system: M. tuberculosis ATCC 35822; assay: Spot culture growth inhibition assay (SPOTi), MIC; assay type: cell-based, Mycobacterium tuberculosis; settings: IC50 Vero / MIC M. tuberculosis ATCC 35822 RI
[5] = system: M. tuberculosis Beijing; assay: Spot culture growth inhibition assay (SPOTi), MIC; assay type: cell-based, Mycobacterium tuberculosis; settings: for Selectivity Index (SI) (SI = IC50/MIC) d: IC50 Vero / MIC M. tuberculosis Beijing
[6] = MTT cytotoxicity assay; settings: African green monkey
[7] = system: M. bovis BCG; assay: microbe, parasite or virus in culture; assay type: cell-based; settings: for Selectivity Index (SI) (SI = IC50/MIC) a: IC50 Vero / MIC M. bovis BCG; for MIC: Mycobacterium tuberculosis variant bovis BCG, BCG, read-out: MIC M. bovis BCG
[8] = system: M. tuberculosis Orphan; assay: Spot culture growth inhibition assay (SPOTi), MIC; assay type: cell-based, Mycobacterium tuberculosis; settings: IC50 Vero / MIC M. tuberculosis orphan
[9] = system: M. tuberculosis LAM 9; assay: Spot culture growth inhibition assay (SPOTi), MIC; assay type: cell-based, Mycobacterium tuberculosis; settings: IC50 Vero / MIC M. tuberculosis LAM 9 (sit 42)
[10] = system: M. tuberculosis H37RV strain; set-up: method as in earlier work; settings: cited from earlier work; for MIC: observed activity of QSAR data set; for MIC exp (log (1/molarMIC)): pMIC from literature MIC in mol/L

## CC(/C=C/c1cc2cc(C)ccc2[nH]c1=O)=N\NC(N)=S [Compound 11b, (E)-2-((E)-4-(6-Methyl-2-oxo-1,2-dihydroquinolin-3-yl)but-3-en-2-ylidene)hydrazine-1-carbothioamide]
[1]
  Selectivity Index (SI) (SI = IC50/MIC) g: 1.06
[2]
  Selectivity Index (SI) (SI = IC50/MIC) f: 1.06
[3]
  Selectivity Index (SI) (SI = IC50/MIC) b: 22.06
  MIC: 0.16 µM (≈ 0.0481 µg/mL)
[4]
  Selectivity Index (SI) (SI = IC50/MIC) h: 1.06
[5]
  Selectivity Index (SI) (SI = IC50/MIC) d: 2.13
[6]
  IC50 at 48 h: 3530 nM
[7]
  Selectivity Index (SI) (SI = IC50/MIC) a: 22.06
  MIC: 0.16 µM (≈ 0.0481 µg/mL)
[8]
  Selectivity Index (SI) (SI = IC50/MIC) c: 0.11
[9]
  Selectivity Index (SI) (SI = IC50/MIC) e: 0.21

## CC(/C=C/c1cc2cccc(C)c2[nH]c1=O)=N\NC(N)=S [Compound 11c, (E)-2-((E)-4-(8-Methyl-2-oxo-1,2-dihydroquinolin-3-yl)but-3-en-2-ylidene)hydrazine-1-carbothioamide]
[1]
  Selectivity Index (SI) (SI = IC50/MIC) g: 1.14
[2]
  Selectivity Index (SI) (SI = IC50/MIC) f: 0.06
[3]
  Selectivity Index (SI) (SI = IC50/MIC) b: 11.88
  MIC: 0.16 µM (≈ 0.0481 µg/mL)
[4]
  Selectivity Index (SI) (SI = IC50/MIC) h: 5.76
[5]
  Selectivity Index (SI) (SI = IC50/MIC) d: 5.76
[6]
  IC50 at 48 h: 1900 nM
[7]
  Selectivity Index (SI) (SI = IC50/MIC) a: 5.75
  MIC: 0.33 µM (≈ 0.0991 µg/mL)
[8]
  Selectivity Index (SI) (SI = IC50/MIC) c: 0.03
[9]
  Selectivity Index (SI) (SI = IC50/MIC) e: 0.58
other
  melting point: 241 °C

## CC(/C=C/c1cc2ccc(Cl)cc2[nH]c1=O)=N\NC(N)=S [Compound 11d, (E)-2-((E)-4-(7-Chloro-2-oxo-1,2-dihydroquinolin-3-yl)but-3-en-2-ylidene)hydrazine-1-carbothioamide]
[1]
  Selectivity Index (SI) (SI = IC50/MIC) g: 0.50
[2]
  Selectivity Index (SI) (SI = IC50/MIC) f: 1.06
[3]
  Selectivity Index (SI) (SI = IC50/MIC) b: 11.00
  MIC: 0.15 µM (≈ 0.0481 µg/mL)
[4]
  Selectivity Index (SI) (SI = IC50/MIC) h: 0.26
[5]
  Selectivity Index (SI) (SI = IC50/MIC) d: 5.00
[6]
  IC50 at 48 h: 1650 nM
[7]
  Selectivity Index (SI) (SI = IC50/MIC) a: 55.00
  MIC: 0.03 µM (≈ 0.00962 µg/mL)
[8]
  Selectivity Index (SI) (SI = IC50/MIC) c: 0.26
[9]
  Selectivity Index (SI) (SI = IC50/MIC) e: 0.53
other
  melting point: 246 °C

## CC(/C=C/c1cc2cc(Br)ccc2[nH]c1=O)=N\NC(N)=S [Compound 11e, (E)-2-((E)-4-(6-Bromo-2-oxo-1,2-dihydroquinolin-3-yl)but-3-en-2-ylidene)hydrazine-1-carbothioamide]
[1]
  Selectivity Index (SI) (SI = IC50/MIC) g: 0.81
[2]
  Selectivity Index (SI) (SI = IC50/MIC) f: 0.08
[3]
  Selectivity Index (SI) (SI = IC50/MIC) b: 16.92
  MIC: 0.13 µM (≈ 0.0475 µg/mL)
[4]
  Selectivity Index (SI) (SI = IC50/MIC) h: 1.61
[5]
  Selectivity Index (SI) (SI = IC50/MIC) d: 8.15
[5]; M. tuberculosis Beijing
  potency relative to Oxafloxacin: tenfold more potent than Oxafloxacin
[6]
  IC50 at 48 h: 2200 nM
[7]
  Selectivity Index (SI) (SI = IC50/MIC) a: 16.92
  MIC: 0.13 µM (≈ 0.0475 µg/mL)
[8]
  Selectivity Index (SI) (SI = IC50/MIC) c: 0.08
[9]
  Selectivity Index (SI) (SI = IC50/MIC) e: 0.80
other
  melting point: 253 °C

## O=C(NCCNc1ccnc2cc(Cl)ccc12)Nc1ccc(Cl)cc1 [Compound 18]
[10]
  MIC: 10.65 µM (≈ 4 µg/mL)
  MIC exp (log (1/molarMIC)): 4.97

## O=[N+]([O-])c1ccc(N2CCN(c3ccnc4cc(Cl)ccc34)CC2)c2nonc12 [Compound 19]
[10]
  MIC: 7.26 µM (≈ 2.98 µg/mL)
  MIC exp (log (1/molarMIC)): 5.13

## O=C(NNc1ccnc2cc(Cl)ccc12)c1ccccc1N=Cc1ccc(F)cc1 [Compound 20]
[10]
  MIC: 6.25 µM (≈ 2.62 µg/mL)
  MIC exp (log (1/molarMIC)): 5.2

## O=C(NNc1ccnc2cc(Cl)ccc12)c1ccccc1N=Cc1ccc(Br)cc1 [Compound 21]
[10]
  MIC: 6.25 µM (≈ 3 µg/mL)
  MIC exp (log (1/molarMIC)): 5.2

## O=C(NNc1ccnc2cc(Cl)ccc12)c1ccccc1N=Cc1ccc(Cl)cc1Cl [Compound 22]
[10]
  MIC: 6.25 µM (≈ 2.94 µg/mL)
  MIC exp (log (1/molarMIC)): 5.20

## COc1ccc(C=Nc2ccccc2C(=O)NNc2ccnc3cc(Cl)ccc23)cc1OC [Compound 23]
[10]
  MIC: 6.25 µM (≈ 2.88 µg/mL)
  MIC exp (log (1/molarMIC)): 5.20

## COc1cc(C=Nc2ccccc2C(=O)NNc2ccnc3cc(Cl)ccc23)cc(OC)c1OC [Compound 24]
[10]
  MIC: 6.25 µM (≈ 3.07 µg/mL)
  MIC exp (log (1/molarMIC)): 5.20

## O=C(NNc1ccnc2cc(Cl)ccc12)c1ccccc1N=Cc1ccc(-c2cccs2)cc1 [Compound 25]
[10]
  MIC: 6.25 µM (≈ 3.02 µg/mL)
  MIC exp (log (1/molarMIC)): 5.20

## O=C(NNc1ccnc2cc(Cl)ccc12)c1ccccc1N=CC=Cc1ccccc1 [Compound 26]
[10]
  MIC: 3.12 µM (≈ 1.33 µg/mL)
  MIC exp (log (1/molarMIC)): 5.51

## Cc1nc2ccccc2c(-c2ccccc2)c1C(=O)c1ccccc1 [Compound 27]
[10]
  MIC: 19.33 µM (≈ 6.25 µg/mL)
  MIC exp (log (1/molarMIC)): 4.71

## CC(=O)c1c(C)nc2ccc(Cl)cc2c1-c1ccccc1 [Compound 28]
[10]
  MIC: 10.57 µM (≈ 3.13 µg/mL)
  MIC exp (log (1/molarMIC)): 4.98

## c1ccc(-c2c3c(nc4ccccc24)CCCCC3)cc1 [Compound 29]
[10]
  MIC: 45.73 µM (≈ 12.5 µg/mL)
  MIC exp (log (1/molarMIC)): 4.34

## CC1CC(=O)c2c(nc3ccccc3c2-c2ccccc2)C1 (centres unmarked) [Compound 30]
[10]
  MIC: 21.75 µM (≈ 6.25 µg/mL)
  MIC exp (log (1/molarMIC)): 4.66

## CC1(C)CC(=O)c2c(nc3ccccc3c2-c2ccccc2)C1 [Compound 31]
[10]
  MIC: 20.74 µM (≈ 6.25 µg/mL)
  MIC exp (log (1/molarMIC)): 4.68

## O=C1CC(c2ccccc2)Cc2nc3ccccc3c(-c3ccccc3)c21 (centres unmarked) [Compound 32]
[10]
  MIC: 35.77 µM (≈ 12.5 µg/mL)
  MIC exp (log (1/molarMIC)): 4.45

## c1ccc(-c2cc(-c3ccccc3)c3ccccc3n2)cc1 [Compound 33]
[10]
  MIC: 11.11 µM (≈ 3.13 µg/mL)
  MIC exp (log (1/molarMIC)): 4.95

## c1ccc(-c2cc(Cc3ccco3)nc3ccccc23)cc1 [Compound 34]
[10]
  MIC: 21.75 µM (≈ 6.21 µg/mL)
  MIC exp (log (1/molarMIC)): 4.66

## COc1ccc(NC(=O)c2c(C)nc3ccccc3c2-c2ccccc2)cc1 [Compound 35]
[10]
  MIC: 8.48 µM (≈ 3.12 µg/mL)
  MIC exp (log (1/molarMIC)): 5.07

## Cc1nc2ccccc2c(-c2ccccc2)c1C(=O)Nc1ccc(F)cc1 [Compound 36]
[10]
  MIC: 16.76 µM (≈ 5.97 µg/mL)
  MIC exp (log (1/molarMIC)): 4.78

## Cc1nc2ccccc2c(-c2ccccc2)c1C(=O)Nc1ccc(Cl)cc1 [Compound 37]
[10]
  MIC: 17.54 µM (≈ 6.54 µg/mL)
  MIC exp (log (1/molarMIC)): 4.76

## Cc1nc2ccccc2c(-c2ccccc2)c1C(=O)Nc1ccc(Br)cc1 [Compound 38]
[10]
  MIC: 30.92 µM (≈ 12.9 µg/mL)
  MIC exp (log (1/molarMIC)): 4.51

## Cc1nc2ccccc2c(-c2ccccc2)c1C(=O)Nc1ccccc1Cl [Compound 39]
[10]
  MIC: 33.53 µM and 18.42 µM
  MIC exp (log (1/molarMIC)): 4.47 and 4.73

## Cc1nc2ccccc2c(-c2ccccc2)c1C(=O)NCc1ccccc1Cl [Compound 43]
[10]
  MIC: 64.42 µM (≈ 24.9 µg/mL)
  MIC exp (log (1/molarMIC)): 4.19

## Cc1nc2ccccc2c(-c2ccccc2)c1C(=O)NCc1ccc(C(C)(C)C)cc1 [Compound 44]
[10]
  MIC: 33.75 µM (≈ 13.8 µg/mL)
  MIC exp (log (1/molarMIC)): 4.47

## NNC(=O)c1ccncc1 [Isoniazid, reference compound]
[3]
  MIC: 0.36 µM (≈ 0.0494 µg/mL)
[7]
  MIC: 0.36 µM (≈ 0.0494 µg/mL)
